Results on 24 compounds are retold here after ChEMBL document CHEMBL1795334, “Towards predictive inhibitor design for the EGFR autophosphorylation activity” (Eur J Med Chem, 2008).

Chain of Epidermal growth factor receptor (P00533 whole entry): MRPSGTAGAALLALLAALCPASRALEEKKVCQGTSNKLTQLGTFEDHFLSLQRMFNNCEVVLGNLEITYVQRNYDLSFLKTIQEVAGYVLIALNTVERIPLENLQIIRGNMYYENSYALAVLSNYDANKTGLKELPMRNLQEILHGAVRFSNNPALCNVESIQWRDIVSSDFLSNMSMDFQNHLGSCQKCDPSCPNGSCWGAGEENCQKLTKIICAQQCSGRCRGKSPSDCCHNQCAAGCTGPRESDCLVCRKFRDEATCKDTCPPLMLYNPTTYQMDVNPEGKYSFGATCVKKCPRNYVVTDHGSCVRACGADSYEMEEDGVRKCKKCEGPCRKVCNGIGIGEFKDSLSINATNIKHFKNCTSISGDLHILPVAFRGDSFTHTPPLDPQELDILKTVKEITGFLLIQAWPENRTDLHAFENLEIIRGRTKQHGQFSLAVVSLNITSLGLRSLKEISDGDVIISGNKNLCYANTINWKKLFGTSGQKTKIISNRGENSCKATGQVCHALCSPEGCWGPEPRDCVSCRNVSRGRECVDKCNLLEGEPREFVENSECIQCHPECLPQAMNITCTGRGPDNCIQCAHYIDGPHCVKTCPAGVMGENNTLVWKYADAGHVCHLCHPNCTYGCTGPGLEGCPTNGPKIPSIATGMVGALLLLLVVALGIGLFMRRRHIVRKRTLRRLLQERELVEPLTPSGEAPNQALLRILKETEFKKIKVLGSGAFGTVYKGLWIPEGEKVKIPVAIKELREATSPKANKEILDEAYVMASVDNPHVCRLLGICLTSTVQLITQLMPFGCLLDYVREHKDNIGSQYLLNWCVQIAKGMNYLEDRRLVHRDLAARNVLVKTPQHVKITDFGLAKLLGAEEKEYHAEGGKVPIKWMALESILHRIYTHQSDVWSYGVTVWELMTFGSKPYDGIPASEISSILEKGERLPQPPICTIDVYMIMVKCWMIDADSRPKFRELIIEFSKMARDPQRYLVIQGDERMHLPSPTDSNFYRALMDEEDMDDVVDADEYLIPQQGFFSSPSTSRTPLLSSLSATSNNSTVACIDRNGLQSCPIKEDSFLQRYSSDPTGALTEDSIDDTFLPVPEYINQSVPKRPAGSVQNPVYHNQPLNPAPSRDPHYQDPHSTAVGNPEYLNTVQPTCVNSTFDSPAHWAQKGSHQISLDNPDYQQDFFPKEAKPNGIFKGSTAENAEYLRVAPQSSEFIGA

This assay addresses Epidermal growth factor receptor (Homo sapiens, UniProt P00533). Nature of the assay: Inhibition autophosphorylation of EGFR in human DiFi cells after 2 hrs by ELISA. The assay is classed as cell-based.
Turning to `COc1cc2ncc(C#N)c(Nc3cccc(NC(C)=O)c3)c2cc1OC`, the midpoint of inhibition, the IC50, lay at 69.2 µM.

Regarding `COc1cc2ncc(C#N)c(Nc3ccc(Cl)cc3F)c2cc1OC`, the IC50 was 13.8 µM.

Turning to `COc1cc2ncc(C#N)c(Nc3ccc(Br)c(C)c3)c2cc1OC`, the IC50 is 0.617 µM.

`COc1cc2ncc(C#N)c(Nc3cccc(C(N)=O)c3)c2cc1OC` gave an IC50 of 7.76 µM.

`COc1cc2ncc(C#N)c(Nc3ccc(C)c(Cl)c3)c2cc1OC` showed an IC50 of 1.48 µM.

Turning to `CCOc1cc2ncc(C#N)c(Nc3ccc(F)c(Cl)c3)c2cc1OCC`, the IC50 is 0.977 µM.

For the compound `CCOc1cc2ncc(C#N)c(Nc3cccc(Br)c3)c2cc1OC`, inhibition was half-maximal at 21.4 µM (IC50).

`COc1cc2ncc(C#N)c(Nc3cccc(Br)c3C)c2cc1OC` gave an IC50 of 0.832 µM.

In the case of `COc1cc2ncc(C#N)c(Nc3ccc(F)cc3)c2cc1OC`, the IC50 was 47.9 µM.

On to `COc1cc2ncc(C#N)c(Nc3ccc(C)c(Br)c3)c2cc1OC`, for which the IC50 was 1.78 µM.

For the compound `COc1cc2ncc(C#N)c(Nc3cccc(C#N)c3)c2cc1OC`, the IC50 was 14.1 µM.

As for `COc1cc2ncc(C#N)c(Nc3cccc(N)c3)c2cc1OC`, it took 0.813 µM to reach half-maximal inhibition (IC50).

Take `COc1cc2ncc(C#N)c(Nc3ccc(O)c(Cl)c3)c2cc1OC`: the IC50 is 9.12 µM.

With `COc1cc2ncc(C#N)c(Nc3ccccc3Br)c2cc1OC`, the IC50 was 4.17 µM.

The compound `COc1cc2ncc(C#N)c(Nc3cccc(Cl)c3)c2cc1OC` showed an IC50 of 0.182 µM.

`COc1cc2ncc(C=O)c(Nc3cccc(Br)c3)c2cc1OC` showed an IC50 of 3.39 µM.

Consider `COCOc1cc2ncc(C#N)c(Nc3cccc(Br)c3)c2cc1OCOC`, for which the IC50 was 6.76 µM.

The compound `COc1cc2ncc(C#N)c(Nc3cccc(SC)c3)c2cc1OC` gave an IC50 of 0.759 µM.

In turn, `COc1cc2c(C#N)cnc(Nc3cccc(Cl)c3)c2cc1OC` had an IC50 of 89.1 µM.

The compound `CCOc1cc2c(Nc3cccc(Br)c3)c(C#N)cnc2cc1OC` had an IC50 of 33.1 µM.

As to `CCOc1cc2ncc(C#N)c(Nc3cccc(Br)c3)c2cc1OCC`, inhibition was half-maximal at 0.417 µM (IC50).

In turn, `COc1cc2ncc(C(=O)O)c(Nc3cccc(Br)c3)c2cc1OC` gave an IC50 of 33.9 µM.

As for `COc1cc2ncc(C#N)c(Nc3cccc(C(C)C)c3)c2cc1OC`, half-maximal inhibition (IC50) required 61.7 µM.

Take `COc1cc2ncc(C#N)c(Nc3cccc(O)c3)c2cc1OC`: 6.31 µM corresponded to half-maximal inhibition (IC50).
